Where two headings read alike, the source gives them in different places. Where only a bound is given, the exact number is not on record here.

The target in assay [1] is F17fG receptor-binding domain (Escherichia coli, UniProt Q9RH91). Description: Surface plasmon resonance steady-state affinity, immobilized F17fG. As for the experimental part: (§1) The affinity profiles were determined by surface plasmon resonance (SPR) measurements using a BiaCore 3000 instrument (GE Healthcare). […] The proteins were covalently immobilized on CM5 sensor chips (Biacore AB) to an average density of 2000 RU (resonance units in pg/mm^2). On each chip, one flow cell was coated with a camel single domain antibody for use as a reference cell. The other three flow cells (Fc2, Fc3 and Fc4) were coated with three different F17G variants. Carbohydrate concentrations ranging from 10 µM to 10 mM in running buffer (20 mM Hepes, pH 7.4; 150 mM NaCl; 3 mM EDTA and 0.005% surfactant Tween 20) were incubated for one minute on all flow cells simultaneously, at 25 °C and at a flow rate of 30 µL/min. Complete dissociation of the carbohydrates in running buffer was verified before starting a new binding cycle. All binding cycles were performed in duplicate, including a zero concentration cycle (injection of pure running buffer). All analysis was done using the BIAeval software. In each case the equilibrium resonance signal from the reference cell was subtracted from that of the various F17G flow cells (2-1, 3-1, 4-1). A Langmuir binding isotherm with a 1:1 stoichiometry was fitted to the data, from which the equilibrium dissociation constants, Kd, were obtained.
Sequence of F17fG receptor-binding domain (Q9RH91 23-198): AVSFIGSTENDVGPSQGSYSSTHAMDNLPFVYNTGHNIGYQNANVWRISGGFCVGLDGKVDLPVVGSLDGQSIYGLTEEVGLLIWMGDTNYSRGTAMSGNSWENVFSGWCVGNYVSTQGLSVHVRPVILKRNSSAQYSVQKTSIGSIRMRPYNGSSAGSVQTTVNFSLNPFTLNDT

The next assay concerns FedF lectin domain. Description: CFG glycan array version 2 (experiment 399), FedF lectin domain. The note with it: CFG glycan array experiment 399; FedF 100 μg/mL. The class given is binding, Escherichia coli. An excerpt: The most highly, triple, sulfated disaccharide (1) is here the best binder: Galβ1,4GlcNAc sulfated at positions 3', 6' and 6 (Table 3). Sulfation of the O6 hydroxyl (2) of GlcNAc is important, as well as N-acetylation on its position 2 (3) because the lactose form has lower affinity. Monosulfation on the non-reducing end galactose (one ion at either 3', 6' or 4') and lack of sulfation at the reducing end GlcNAc each decrease the fluorescence signal dramatically.

For assay [2], the target named is T1, F17aG receptor-binding domain (Escherichia coli, UniProt Q99003).
T1 construct: variants of the lectin domains with oligolysine (4Lys) tails have been constructed; made in house; host or cells: E. coli (periplasm)
T1 sequence (Q99003 23-199): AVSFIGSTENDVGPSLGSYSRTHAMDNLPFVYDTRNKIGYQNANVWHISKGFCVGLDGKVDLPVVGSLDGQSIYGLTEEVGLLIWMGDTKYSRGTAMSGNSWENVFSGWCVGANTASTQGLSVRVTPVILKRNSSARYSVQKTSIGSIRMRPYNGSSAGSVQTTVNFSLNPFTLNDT
Description: biochemical. The procedure:
as §1

The target in assay [3] is F17eG receptor-binding domain. Put plainly: Surface plasmon resonance steady-state affinity, immobilized F17eG. The arrangement: species or system Escherichia coli. The note with it: SPR steady state, 25 °C, pH 7.4. The procedure:
as §1

The target of assay [4] is T2, F17bG receptor-binding domain (Escherichia coli, UniProt Q47200).
T2 construct: variants of the lectin domains with oligolysine (4Lys) tails have been constructed; made in house; host or cells: E. coli (periplasm)
T2 sequence (Q47200 23-199): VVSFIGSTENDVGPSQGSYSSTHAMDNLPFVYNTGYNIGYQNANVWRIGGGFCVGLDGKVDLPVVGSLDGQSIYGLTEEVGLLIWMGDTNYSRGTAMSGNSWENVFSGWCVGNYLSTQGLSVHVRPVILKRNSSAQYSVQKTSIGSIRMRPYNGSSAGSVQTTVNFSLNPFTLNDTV
The note with it: SPR steady state, 25 °C, pH 7.4; read-out: Affinity range (Kd class), F17bG. As for the experimental part: as §1

A further assay addresses F17aG lectin domain (Escherichia coli, UniProt Q99003). The note with it: array version 4.1, exp. 2053. The text has this:
With mammalian printed array version 4.1, a new evaluation parameter was taken into account, namely % CV = 100 × Std. Dev/Mean. The highest and the lowest point from each set of six replicates have been removed so the average is of 4 values rather than 6. This eliminates some of the false hits that contain a single very high or low point. Thus, points with a high % CV should be considered suspect. […] This comparison provides information on binding specificity. The CFG glycan array data are available containing searchable results by means of flex-based data browser tools.
A microarray presenting 264 different glycans (mammalian printed array version 2 from the CFG, experiment 400) was used to evaluate whether the F17G variant lectin domains differ in the range of glycan receptors that they can recognize, thereby establishing strain-dependent tropism. […] The glycan array screening has been repeated for F17aG only on printed array version 4.1 (experiment 2053) (Figure 1).

The mark [5] stands for this setting: SPR steady state, 25 °C, pH 7.4, read-out: Affinity range (Kd class), F17fG.
The mark [6] stands for this setting: Affinity range (Kd class), F17aG, SPR steady state, 25 °C, pH 7.4.
The mark [7] stands for this setting: SPR steady state, 25 °C, pH 7.4, read-out: Affinity range (Kd class), F17aG.
[8] abbreviates: read-out: Affinity range (Kd class), F17eG.
The mark [9] stands for this setting: SPR steady state, 25 °C, pH 7.4, good fit for at least three related experiments, read-out: dissociation constant Kd, F17aG.
The mark [10] stands for this setting: good fit for at least three related experiments, read-out: dissociation constant Kd, F17eG.

Sequence of F17aG lectin domain (Q99003 23-199): as the sequence (Q99003 23-199) above

Regarding “Neu5Acα2,3Galβ1,3(Neu5Acα2,6)GlcNAcβ1,3Gal β1,4Glc”, the Kd in assay [1] (setting [5]) is over 100 mM.
On to `CC(=O)N[C@H]1C(O)O[C@H](COS(=O)(=O)O)[C@@H](O[C@@H]2O[C@H](COS(=O)(=O)O)[C@H](O)[C@H](OS(=O)(=O)O)[C@H]2O)[C@@H]1O` (stereo partly drawn) [[3OSO3][6OSO3]Galβ1,4[6OSO3]GlcNAc], for which the “RFU (averaged Relative Fluorescence Units for the six replicates), FedF lectin domain” value in the assay with FedF lectin domain is listed as 10,388 RFU.
On to `CC(=O)N[C@H]1[C@H]([C@H](O)[C@H](O)CO)OC(O)(C(=O)O)C[C@@H]1O` (stereo partly drawn) [N-acetylneuraminic acid], for which the Kd in assay [2] (setting [6]) and in assay [1] was over 100 mM in each case.
Regarding `CC(=O)N[C@@H]1[C@@H](O)[C@H](O)[C@@H](COS(=O)(=O)O)O[C@H]1O` [GlcNAc6SO3^−], the Kd in assay [2] (setting [7]) was 10 to 100 mM; in assay [1] (setting [5]) it was over 100 mM; in assay [3] (setting [8]), 1 to 10 mM.
Turning to `CO[C@@H]1O[C@H](CO)[C@H](O[C@@H]2O[C@H](CO)[C@@H](O)[C@H](O)[C@H]2NC(C)=O)[C@H](O)[C@H]1O` [GlcNAcβ1,4Gal, GlcNAc(β1-4)Galβ1OMe], the Kd is 3.3 mM in assay [2] (setting [9]), 1 to 10 mM in assay [2] (setting [7]), 2.7 mM in assay [3] (setting [10]) and 1 to 10 mM in assay [3] (setting [8]).
In the case of `CC(=O)N[C@@H]1[C@@H](O)[C@H](O)[C@@H](CO)O[C@H]1O` [GlcNAc, N-acetylglucosamine], the Kd was 1 to 10 mM in assay [2] (setting [6]); 1.2 mM in assay [2] (dissociation constant Kd, F17aG, SPR steady state, 25 °C, pH 7.4, good fit for at least three related experiments); 1 to 10 mM in assay [1].
For the compound [3OSO3][6OSO3]Galβ1,4GlcNAc, the “RFU (averaged Relative Fluorescence Units for the six replicates), FedF lectin domain” value with FedF lectin domain was 4,733 RFU.
With `CC(=O)N[C@H]1C(O)O[C@H](COP(=O)(O)O)[C@@H](O)[C@@H]1O` (stereo partly drawn) [GlcNAc6PO3^2−], the Kd in assay [2] (setting [7]) was over 100 mM; in assay [4], 10 to 100 mM; in assay [1] (setting [5]) it was over 100 mM.
On to `CC(=O)N[C@H]1C(O)O[C@H](CO)[C@@H](O)[C@@H]1OS(=O)(=O)O` (stereo partly drawn) [GlcNAc3SO3^−], for which the Kd in assay [2] (setting [7]) was 1 to 10 mM; in assay [4], 1 to 10 mM; in assay [1] (setting [5]), over 100 mM.
On to `CC(=O)NC1C(O)OC(CO)C(OC2OC(COS(=O)(=O)O)C(OS(=O)(=O)O)C(O)C2O)C1O` (stereo not drawn) [[4OSO3][6OSO3]Galβ1,4GlcNAc], for which the “RFU (averaged Relative Fluorescence Units for the six replicates), FedF lectin domain” value in the assay on FedF lectin domain was 4,568 RFU.
`CC(=O)N[C@H]1[C@H](O[C@@H]2[C@@H](OC[C@H]3OC(O)[C@@H](O)[C@@H](O[C@H]4O[C@H](CO)[C@@H](O)[C@H](O)[C@@H]4O[C@@H]4O[C@H](CO)[C@@H](O)[C@H](O)[C@H]4NC(C)=O)[C@@H]3O)O[C@H](CO)[C@@H](O)[C@@H]2O)O[C@H](CO)[C@@H](O)[C@@H]1O` (stereo partly drawn) [GlcNAcβ1,2Manα1,6(GlcNAcβ1,2Manα1,3)Man]: the Kd was 3 mM in assay [2] (setting [9]), 1 to 10 mM in assay [2] (setting [7]), 3 mM in assay [3] (setting [10]) and 1 to 10 mM in assay [3] (setting [8]).
For the compound GM1 ganglioside, the Kd in assay [1] (setting [5]) was over 100 mM.
In the case of `CO[C@@H]1O[C@H](CO)[C@H](O)[C@H](O[C@@H]2O[C@H](CO)[C@@H](O)[C@H](O)[C@H]2NC(C)=O)[C@H]1O` [GlcNAcβ1,3Gal, GlcNAc(β1-3)Galβ1OMe], the Kd was 0.66 mM in assay [2] (SPR measurements, text says F17G without variant, read-out: Kd of F17G as stated in the discussion); 0.66 mM in assay [2] (setting [9]); 0.1 to 1 mM in assay [2] (setting [7]); 1 to 10 mM in assay [4]; 0.1 to 1 mM in assay [1] (setting [5]); 0.28 mM in assay [3] (setting [10]).
Consider Neu5Acα2,3Galβ1,4GlcNAcβ1,2 Man, for which, in assay [3] (setting [8]), the Kd is 10 to 100 mM.
Consider `O=S(=O)(O)OC[C@H]1O[C@@H](O[C@H]2[C@H](O)[C@@H](O)C(O)O[C@@H]2COS(=O)(=O)O)[C@H](O)[C@@H](O)[C@H]1O` (stereo partly drawn) [[6OSO3]Galβ1,4[6OSO3]Glc], for which the “RFU (averaged Relative Fluorescence Units for the six replicates), FedF lectin domain” value in the assay on FedF lectin domain is reported as 5,405 RFU.
As to HOOC(CH3)CH3-3-O-GlcNAcβ1,4GlcNAcβ-Sp10, the “Rank among binders on CFG array, F17aG” value on F17aG lectin domain is on record as “highest binding”.
On to `CC(=O)N[C@H]1C(O)O[C@H](CO)[C@@H](O[C@@H]2O[C@H](CO)[C@@H](O)[C@H](O)[C@H]2N)[C@@H]1O[C@H](C)C(=O)O` (stereo partly drawn) [GlcNH2-MurNAc, glucosamine β1,4 N-actetylmuramic acid], for which the figures for the Kd in assay [2] (setting [7]), in assay [4] and in assay [1] (setting [5]) were 10 to 100 mM, 10 to 100 mM and over 100 mM, respectively.
In the case of `CC(=O)N[C@H]1[C@H](Oc2ccc([N+](=O)[O-])cc2)O[C@H](CO)[C@@H](O)[C@@H]1O` [pNP-GlcNAc, paranitrophenyl β-GlcNAc], the Kd was 0.1 to 1 mM in assay [2] (setting [7]), 10 to 100 mM in assay [4] and 1 to 10 mM in assay [1] (setting [5]).
Turning to `O=S(=O)(O)OCC1OC(O)C(O)C(O)C1OC1OC(CO)C(O)C(OS(=O)(=O)O)C1O` (stereo not drawn) [[3OSO3]Galβ1,4[6OSO3]Glc], the “RFU (averaged Relative Fluorescence Units for the six replicates), FedF lectin domain” value in the assay with FedF lectin domain is 4,073 RFU.
Turning to `CO[C@@H]1O[C@H](CO)[C@H](O)[C@H](O)[C@H]1O[C@@H]1O[C@H](CO)[C@@H](O)[C@H](O)[C@H]1NC(C)=O` [GlcNAcβ1,2Gal, GlcNAc(β1-2)Galβ1OMe], the dissociation constant Kd in assay [2] (setting [9]) was 4.2 mM; in assay [2] (setting [7]), 1 to 10 mM; in assay [3] (setting [10]), 2 mM; in assay [3] (setting [8]), 1 to 10 mM.
Consider `CC(=O)N[C@H]1[C@H](O[C@H]2[C@H](O)[C@@H](NC(C)=O)C(O)O[C@@H]2CO)O[C@H](CO)[C@@H](O)[C@@H]1O` (stereo partly drawn) [GlcNAcβ1,4GlcNAc], for which the Kd in assay [2] (setting [9]) is 3.3 mM; in assay [2] (setting [7]), 1 to 10 mM; in assay [4], 1 to 10 mM; in assay [1] (setting [5]), 1 to 10 mM.
On to Galβ1,6GlcNAc, for which the results for the Kd in assay [1] (setting [5]) and in assay [3] (setting [8]) were 10 to 100 mM and 1 to 10 mM, respectively.
Turning to `CC(=O)N[C@@H]1C(O)O[C@H](CO)[C@@H](O)[C@@H]1O` (stereo partly drawn) [N-acetylmannosamine], the Kd in assay [2] (setting [7]) is 1 to 10 mM; in assay [4] it was 10 to 100 mM; in assay [1] (setting [5]), 1 to 10 mM.
Take `CO[C@@H]1O[C@H](CO[C@@H]2O[C@H](CO)[C@@H](O)[C@H](O)[C@H]2NC(C)=O)[C@H](O)[C@H](O)[C@H]1O` [GlcNAcβ1,6Gal, GlcNAc(β1-6)Galβ1OMe]: the Kd in assay [2] (setting [9]) is 2.8 mM; in assay [2] (setting [7]), 1 to 10 mM; in assay [3] (setting [10]) it was 3.8 mM; in assay [3] (setting [8]) it was 1 to 10 mM.

The values above are taken from paper PMC3960879 (Biology, 2013).
